Reference: patent US20200017496A1 (priority 2017, published 2020)

Legend:
Assay in all cases: MIC of compounds alone and combined with antibacterials, broth microdilution (CLSI)
Format in all cases: cell-based
[1] = test system: Providencia stuartii (PST) isolates; conditions: alone
In short: (§1)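 Inoculum 5·10^5 CFU/mL (final), log phase, ca-MHB; 16-20 h, 35° C, ambient air. MIC = lowest conc. with no visible growth; ATB MIC read at each compound level.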

[2] = test system: Serratia marcescens (SMA) isolates
In short: as §1

[3] = test system: Morganella morganii (MMO) isolates; conditions: alone
In short: as §1

[4] = test system: Klebsiella oxytoca (KOX) isolates; conditions: alone
In short: as §1

[5] = test system: Citrobacter koseri (CKR) isolates; conditions: alone
In short: as §1

[6] = test system: Citrobacter freundii (CFR) isolates
In short: as §1

[7] = test system: Klebsiella pneumoniae (KPN) isolates; conditions: alone
In short: as §1

Question: What does the source list for `NC(=O)[C@@H]1CC[C@@H]2CN1C(=O)N2OC(F)(F)C(=O)[O-].[Na+]` [EA1]?
Answer: MIC ([1]; PST UFR94): >32 µg/mL; MIC ([1]; PST UFR95): >32 µg/mL; MIC ([1]; PST UFR235): 16 µg/mL; MIC ([2]; SMA UFR30, alone): >32 µg/mL; MIC ([2]; SMA UFR134, alone): >32 µg/mL; MIC ([2]; SMA UFR135, alone): >32 µg/mL; MIC ([2]; SMA UFR136, alone): >32 µg/mL; MIC ([2]; SMA UFR137, alone): >32 µg/mL; MIC ([2]; SMA UFR138, alone): >32 µg/mL; MIC ([2]; SMA UFR139, alone): >32 µg/mL; MIC ([2]; SMA UFR141, alone): >32 µg/mL; MIC ([2]; SMA UFR142, alone): >32 µg/mL; MIC ([2]; SMA UFR143, alone): 64 µg/mL; MIC ([2]; SMA UFR239, alone): >32 µg/mL; MIC ([2]; strain SMA UFR238, compound alone): >32 µg/mL; MIC ([3]; MMO 200321): >32 µg/mL; MIC ([3]; MMO UFR144): >32 µg/mL; MIC ([3]; MMO UFR240): >32 µg/mL; MIC ([3]; MMO UFR241): >32 µg/mL; MIC ([3]; MMO UFR242): 128 µg/mL; MIC ([3]; MMO UFR243): >32 µg/mL; MIC ([3]; MMO UFR244): >32 µg/mL; MIC ([3]; MMO UFR245): >32 µg/mL; MIC ([3]; MMO UFR246): >32 µg/mL; MIC ([3]; MMO UFR247): 64 µg/mL; MIC ([4]; KOX UFR21): >32 µg/mL; MIC ([4]; KOX UFR173): >32 µg/mL; MIC ([4]; KOX UFR223): >32 µg/mL; MIC ([4]; KOX UFR224): >32 µg/mL; MIC ([5]; CKO ROU): 16 µg/mL; MIC ([5]; CKO UFR149): 16 µg/mL; MIC ([5]; CKO UFR150): >32 µg/mL; MIC ([6]; CFR UFR10, alone): >32 µg/mL; MIC ([6]; CFR UFR11, alone): 16 µg/mL; MIC ([6]; CFR UFR83, alone): >32 µg/mL; MIC ([6]; CFR UFR146, alone): 64 µg/mL; MIC ([6]; CFR UFR248, alone): >32 µg/mL; MIC ([6]; CFR UFR249, alone): >32 µg/mL; MIC ([6]; CFR UFR250, alone): >32 µg/mL; MIC ([6]; strain CFR UFR253, compound alone): 32 µg/mL; MIC ([6]; strain CFR UFR254, compound alone): 32 µg/mL; MIC ([7]; KPN 6299): >32 µg/mL; MIC ([7]; KPN 110376): >32 µg/mL; MIC ([7]; KPN 131119): >32 µg/mL; MIC ([7]; KPN 140513): >32 µg/mL; MIC ([7]; KPN 160143): >32 µg/mL; MIC ([7]; KPN 190128): >32 µg/mL; MIC ([7]; KPN 190270): >32 µg/mL; MIC ([7]; KPN 190425): >32 µg/mL; MIC ([7]; KPN 190551): >32 µg/mL; MIC ([7]; KPN 200047): >32 µg/mL; MIC ([7]; KPN 200327): >32 µg/mL; MIC ([7]; KPN 260251): >32 µg/mL; MIC ([7]; KPN 260252): >32 µg/mL; MIC ([7]; KPN 260376): >32 µg/mL; MIC ([7]; KPN 270077): >32 µg/mL; MIC ([7]; KPN 700603): >32 µg/mL; MIC ([7]; KPN ARA): >32 µg/mL; MIC ([7]; KPN BAA-1898): >32 µg/mL; MIC ([7]; KPN LIB): >32 µg/mL; MIC ([7]; KPN UFR22_O): >32 µg/mL; MIC ([7]; KPN UFR23): >32 µg/mL; MIC ([7]; KPN UFR24): >32 µg/mL; MIC ([7]; KPN UFR25): >32 µg/mL; MIC ([7]; KPN UFR27): >32 µg/mL; MIC ([7]; KPN UFR28): >32 µg/mL; MIC ([7]; KPN UFR65): >32 µg/mL; MIC ([7]; KPN UFR66): >32 µg/mL; MIC ([7]; KPN UFR67): >32 µg/mL; MIC ([7]; KPN UFR68): >32 µg/mL; MIC ([7]; KPN UFR76): >32 µg/mL; MIC ([7]; KPN UFR77): >32 µg/mL; MIC ([7]; KPN UFR78): >32 µg/mL; MIC ([7]; KPN UFR79): >32 µg/mL; MIC ([7]; KPN UFR80): >32 µg/mL; MIC ([7]; KPN UFR81): >32 µg/mL; MIC ([7]; KPN UFR215): >32 µg/mL; MIC ([7]; KPN UFR216): >32 µg/mL; MIC ([7]; KPN UFR217): >32 µg/mL; MIC ([7]; KPN UFR219): >32 µg/mL; MIC ([7]; KPN UFR220): >32 µg/mL; MIC ([7]; KPN UFR221): >32 µg/mL; MIC ([7]; KPN UFR222): >32 µg/mL; MIC ([7]; KPN UFR227O): >32 µg/mL
